Measurements as given in US20070093539A1, “N-hydroxy-4-(3-pheyl-5-methyl-isoxazole-4-yl)-benzenesulfonate solvates” (priority 2003, published 2007).

Columns and labels:
[1] = tested on: inflammatory mechanical allodynia induced by carrageenan; test: Carrageenan-induced inflammatory mechanical allodynia (von Frey); type: in vivo, male Sprague-Dawley rats; conditions: 30 mg/kg p.o.
Experimental: The-threshold of pain of the animals was measured by von Frey apparatus (IITC, type: 1601 C). […] The values were registered in the times of the pick up or raises. During each measurment the threshold was determined at least thrice and the avarage was calculated from the peak values.
Male Sprague-Dawley rats (weighing 250-300 g) were used (n=5-6/group). 100 μl of saline solution of carrageenant (CA) was injected to the middle of the paw. The stimulus threshold was measured after it, and the treatment was completed with gastro-probe per os. The effects of the materials were measured in 30, 60, 90, 120 minutes after the treatments. The effects were compared for control group treatment with vehicle (solution of 2% Tween-80).
The effect was calculated as follows: [formula] where tx=30, 60, 90, 120 min
In the acute pain model the analgesic effects of the valdecoxib and compound of example 1 were considerable with dose of 30 mg/kg p.o. once.

[2] = tested on: carrageenan induced inflammatory hyperalgesia; test: Carrageenan induced inflammatory hyperalgesia (Randall-Selitto), acute model; type: in vivo, male SPRD rats; conditions: Acut model, 10 mg/kg p.o.
Experimental: (§1) Edema was induced by injection of Carrageenan (CA) into plantar surface of right hind paw. Male SPRD rats (weighing 140-190 g) were used n=6-8/group). Then the mechanical pain threshold of the inflamed hind paw was determined with an analgesimeter ((Ugo Basile, type: 37215).
(§2) This assay monitors the decrease of the pain threshold, and the time depending changing of the pain by mechanical pain stimulus. Analgesics can increase the pain threshold of the inflamed hinds and this effect is in terms of percentage of reversal.
(§3) Untreated right hind paw was compressed with a progressively increasing pressure. The pressure was recorded (in grams) when the animal first vocalized or made a vigorous attempt to remove the paw. It was determined to baseline threshold of the untreated paw. (average: 80-110 g). After it the animals were treated with carrageenan. After the treatment the edema and the threshold were checked in a given times. […] (Average of inflammation induced pain threshold was 20-25 g, this means 65-80% decrease related to the baseline.)
1 hour after the CA injection (100 μl of 2% solution) the animals were treated with test compounds and valdecoxib (10-10 mg/kg p.o.). […]
(§4) The chronic phase of the inflammantion and the decreasing of the threshold were induced by higher dose of CA. Inflammation induced threshold decreasing was measured 24 hours after the CA injection (150 μl of 2% solution). ) After it the animals were treated with test compounds and valdecoxib (30-30 mg/kg p.o.). Change in the threshold was checked at 1 h, 2 h, and 3 h following drug administration. In both model used control groups were treated orally only with solvents at the time of treatments. In both protocol the effects of the test compounds were calculated in percentage reversal of mechanical hiperalgesia: [formula] • T3h: In acute model, the threshold in the control group at 3 h after the CA injection (in gram) • T24h: In chronic model, the threshold in the control group at 24 h after the CA injection (in gram) • T0h: The threshold before the CA injection (in gram) • TXh In acute model, at 3h after the CA injection • TXh=In chronic model, at 25 h, 26 h, 27 h after the CA injection

[3] = tested on: carrageenan induced inflammatory hyperalgesia; test: Carrageenan induced inflammatory hyperalgesia (Randall-Selitto), chronic model; type: in vivo, male SPRD rats; conditions: 30 mg/kg p.o.
Experimental: as §1, §2, §3, §4

[4] = tested on: isolated rabbit heart; test: Cardiac effects on the isolated rabbit heart (Langendorff, coronary flow); set-up: species or system New Zealand white rabbits; coronary flow: unit not given here; conditions: for coronary flow % changing: versus basic value
Experimental: New Zealand white rabbits weighing 1.5-2 kg were used. The animals were exsanguinated and after thoracotomy the hearts were excised and mounted on a Langendorff-type perfusion apparatus. The hearts were perfused via the aorta with oxigenated, thermostated (37° C.) Krebs solution. A constant perfusion pressure of 80 cmH2O was applied. The test compounds were dissolved in the perfusion solution to obtain the requested concentrations.
The basic value of coronary flow was determined. Afterwards the small amount of compounds were added to perfusion liquid and the perfusion was measured for 30 minutes at every 10 minutes. Afterwards 30 minutes perfusion was performed without compound and the measure was repeated with the medium and high amount of compounds.
The effects of same concentration of valdecoxib and compound of example 1 were investigated in 4-4 hearts (1, 3 and 10 μM). Valdecoxib had no effect in either concentration. It can clearly be shown that the coronary flow was increased dose dependently. This effect is advantageous in practice of clinical therapy, because the painful arthritic and degenerative joint and bone deformations are emerged rather in old age, when diseases of the vascular system are also frequently encountered, which can conduce to disorder of vascular bed of the heart.

N-hydroxi-4-(3-phenyl-5-methyl-isoxazole-4-yl)-benzenesulfonamide monohydrate [example 1]
Analgesic effect in % after p.o. treatment ([1]; 30 min.): 61.6% | Analgesic effect in % after p.o. treatment ([1]; 1 hour): 57.1% | Analgesic effect in % after p.o. treatment ([1]; 1.5 hour): 44.5% | Analgesic effect in % after p.o. treatment ([1]; 2 hours): 41.5% | Analgesic effect in % after p.o. treatment ([2]; 2 hours): 64.6% | Analgesic effect in % after p.o. treatment ([2]; 3 hours): 40.7% | Analgesic effect in % after p.o. treatment ([2]; 4 hours): 12.3% | Analgesic effect in % after p.o. treatment ([3]; 1 hour): 57.8% | Analgesic effect in % after p.o. treatment ([3]; 2 hours): 63.9% | Analgesic effect in % after p.o. treatment ([3]; 3 hours): 42.0% | coronary flow ([4]; 1 μM, 10 minutes of treatment): 40.0 ± 3.3 | coronary flow % changing ([4]; 1 μM, 10 minutes): 16.6% | coronary flow ([4]; 1 μM, 20 minutes of treatment): 39.0 ± 3.0 | coronary flow % changing ([4]; 1 μM, 20 minutes): 13.7% | coronary flow ([4]; 1 μM, 30 minutes of treatment): 37.5 ± 2.4 | coronary flow % changing ([4]; 1 μM, 30 minutes): 9.3% | coronary flow ([4]; 3 μM, 10 minutes of treatment): 37.3 ± 2.3 | coronary flow % changing ([4]; 3 μM, 10 minutes): 24.3% | coronary flow ([4]; 3 μM, 20 minutes of treatment): 37.5 ± 1.7 | coronary flow % changing ([4]; 3 μM, 20 minutes): 25.0% | coronary flow ([4]; 3 μM, 30 minutes of treatment): 38.8 ± 1.3 | coronary flow % changing ([4]; 3 μM, 30 minutes): 26.0% | coronary flow ([4]; 10 μM, 10 minutes of treatment): 45.8 ± 2.5 | coronary flow % changing ([4]; 10 μM, 10 minutes): 63.6% | coronary flow ([4]; 10 μM, 20 minutes of treatment): 48.3 ± 4.8 | coronary flow % changing ([4]; 10 μM, 20 minutes): 72.5% | coronary flow ([4]; 10 μM, 30 minutes of treatment): 49.0 ± 4.8 | coronary flow % changing ([4]; 10 μM, 30 minutes): 75.0% | effect on coronary flow (in words) ([4]; 1, 3 and 10 μM, 4-4 hearts): positive effect
